14 molecules from patent US8889688B2, “Piperazines as antimalarial agents” (Actelion Pharmaceuticals Ltd., priority 2011, dated 2014) can be followed below.

Experiment [1] relates to erythrocytic stages of P. falciparum NF54. The experiment in a line: Plasmodium falciparum in vitro assay, [3H] hypoxanthine incorporation. Conditions: Plasmodium falciparum, Erythrocyte, 72 h, P. falciparum NF54 in human red blood cells, 48 h + 24 h incubation. The experiment is classed as cell-based. On the procedure: In Vitro Antimalarial Activity: Plasmodium falciparum In Vitro Assay In vitro activity against erythrocytic stages of P. falciparum in human red blood cells is determined using a [^3H] hypoxanthine incorporation assay. […] Thereafter, the parasite cultures incubated in screening medium containing washed human red blood cells at 2.5% hematocrit (0.3% parasitemia) are added to the serially diluted compounds and incubated in a humidifying atmosphere at 37° C., 4% CO2, 3% O2, and 93% N2. After 48 h, [^3H] hypoxanthine (0.5 μCi) is added to each well of a plate. The plates are incubated for a further 24 h under the same conditions then harvested with a Betaplate cell harvester (Wallac) and washed with distilled water. The dried filters are inserted into a plastic foil with 10 mL of scintillation fluid, and counted in a Betaplate liquid scintillation counter. IC50 values are calculated from sigmoidal inhibition curves using Microsoft Excel.

Experiment [2] deals with P. berghei strain GFP-ANKA. The experiment in a line: In vivo antimalarial efficacy study in infected NMRI mice. The conditions noted are these: Plasmodium berghei; female NMRI mice infected with P. berghei GFP-ANKA; single oral dose of 100 mg/kg 24 h after infection; parasitemia 48 h after drug treatment (day 3); read-out: Activity (inhibition of parasitemia) expressed as a percent relative to the control group. The method, then:
In Vivo Antimalarial Efficacy Studies
In vivo antimalarial activity is assessed for groups of three female NMRI mice (20-22 g) intravenously infected on day 0 with P. berghei strain GFP-ANKA (0.2 mL heparinized saline suspension containing 2×10^7 parasitized erythrocytes). In control mice, parasitemia typically rises to approximately 40% by day 3 after infection. Compounds are formulated in Tween 80/ethanol (7%/3%) usually at concentrations of 10 mg/mL. Compounds are administered in a volume of 10 mL/kg orally as single doses (1×100 mg/kg, 24 h after infection). 48 h after drug treatment (day 3 post-infection), 1 μl tail blood is taken, resuspended in 1 mL PBS buffer and parasitemia determined with a FACScan (Becton Dickinson) by counting 100′000 red blood cells. Activity is calculated as the difference between the mean value of the control group and treated groups expressed as a percent relative to the control group.

Setting [3] is: screening medium with Albumax (5 g/L), read-out: IC50 on NF54 (with Albumax).
[4] abbreviates: screening medium with human serum (50% final concentration), read-out: IC50 on NF54 (with 50% Serum).

Read-outs that look alike come from different tables or passages of the source.

What is called IC50 is the concentration at which inhibition is half-maximal. As for `CC(=O)N1CCN(c2ccc(CN(C(=O)C=Cc3ccc(OC(C)C)cc3)[C@@H](Cc3ccccc3)C(=O)N3CCN(Cc4ccc(N(C)C)cc4)CC3)cc2)CC1` [Example 19, (S)-N-[4-(4-Acetyl-piperazin-1-yl)-benzyl]-N-{1-benzyl-2-[4-(4-dimethylamino-benzyl)-piperazin-1-yl]-2-oxo-ethyl}-3-(4-isopropoxy-phenyl)-acrylamide], the IC50 in experiment [1] (setting [3]) was determined as 2.6 nM; in experiment [1] (setting [4]) it was 9.3 nM. In addition, the inhibition in vivo at 100 mg/kg in experiment [2] came to 99.2%.

As to `CCc1ccc(C=CC(=O)N(Cc2ccc(N3CCN(C(C)=O)CC3)cc2)[C@@H](Cc2ccccc2)C(=O)N2CCN(Cc3ccc(N(C)C)cc3)CC2)cc1` [Example 20, (S)-N-[4-(4-Acetyl-piperazin-1-yl)-benzyl]-N-{1-benzyl-2-[4-(4-dimethylamino-benzyl)-piperazin-1-yl]-2-oxo-ethyl}-3-(4-ethyl-phenyl)-acrylamide], the IC50 in experiment [1] (setting [3]) was 1.2 nM; in experiment [1] (setting [4]) it was 7.1 nM. Further, the inhibition in vivo at 100 mg/kg in experiment [2] was 98.5%.

On to `CC(=O)N1CCN(c2ccc(CN(C(=O)C=Cc3ccc(OC(F)F)cc3)[C@@H](Cc3ccccc3)C(=O)N3CCN(Cc4ccc(N(C)C)cc4)CC3)cc2)CC1` [Example 21, (S)-N-[4-(4-Acetyl-piperazin-1-yl)-benzyl]-N-{1-benzyl-2-[4-(4-dimethylamino-benzyl)-piperazin-1-yl]-2-oxo-ethyl}-3-(4-difluoromethoxy-phenyl)-acrylamide], for which the half-maximal inhibitory concentration (IC50) in experiment [1] (setting [3]) amounted to 1.9 nM; in experiment [1] (setting [4]) it was 7 nM. For the same molecule, in experiment [2], the inhibition in vivo at 100 mg/kg was determined as 98.8%.

On to `CC(=O)N1CCN(c2ccc(CN(C(=O)C=Cc3ccc(C(C)(C)C)cc3)[C@@H](Cc3ccccc3)C(=O)N3CCN(Cc4ccc(N(C)C)cc4)CC3)cc2)CC1` [Example 22, (S)-N-[4-(4-Acetyl-piperazin-1-yl)-benzyl]-N-{1-benzyl-2-[4-(4-dimethylamino-benzyl)-piperazin-1-yl]-2-oxo-ethyl}-3-(4-tert-butyl-phenyl)-acrylamide], for which the IC50 was 1.3 nM in experiment [1] (setting [3]) and 10.9 nM in experiment [1] (setting [4]). Besides, the inhibition in vivo at 100 mg/kg in experiment [2] amounted to 99.3%.

Regarding `CC(=O)N1CCN(c2ccc(CN(C(=O)C=Cc3ccc(C(C)C)cc3)[C@@H](Cc3ccccc3)C(=O)N3CCN(Cc4ccc(N(C)C)cc4)CC3)cc2)CC1` [Example 23, (S)-N-[4-(4-Acetyl-piperazin-1-yl)-benzyl]-N-{1-benzyl-2-[4-(4-dimethylamino-benzyl)-piperazin-1-yl]-2-oxo-ethyl}-3-(4-isopropyl-phenyl)-acrylamide], the half-maximal inhibitory concentration (IC50) was determined as 1.3 nM in experiment [1] (setting [3]) and 9.5 nM in experiment [1] (setting [4]). The inhibition in vivo at 100 mg/kg in experiment [2] turned out to be 99.1%.

`CC(=O)N1CCN(c2ccc(CN(C(=O)C=Cc3ccc(C(F)(F)F)cc3)[C@@H](Cc3ccccc3)C(=O)N3CCN(Cc4ccc(C#N)cc4)CC3)cc2)CC1` [Example 24, (S)-N-[4-(4-Acetyl-piperazin-1-yl)-benzyl]-N-{1-benzyl-2-[4-(4-cyano-benzyl)-piperazin-1-yl]-2-oxo-ethyl}-3-(4-trifluoromethyl-phenyl)-acrylamide]: the 50% inhibitory concentration (IC50) stood at 2.8 nM in experiment [1] (setting [3]) and 13.9 nM in experiment [1] (setting [4]). Moreover, the inhibition in vivo at 100 mg/kg in experiment [2] worked out at 79.2%.

On to `CCOc1ccc(C=CC(=O)N(Cc2ccc(N3CCN(C(C)=O)CC3)cc2)[C@@H](Cc2ccccc2)C(=O)N2CCN(Cc3ccc(C#N)cc3)CC2)cc1` [Example 25, (S)-N-[4-(4-Acetyl-piperazin-1-yl)-benzyl]-N-{1-benzyl-2-[4-(4-cyano-benzyl)-piperazin-1-yl]-2-oxo-ethyl}-3-(4-ethoxy-phenyl)-acrylamide], for which the results for the IC50 in experiment [1] (setting [3]) and in experiment [1] (setting [4]) were 1.2 nM and 4.7 nM, respectively. Also, in experiment [2], the inhibition in vivo at 100 mg/kg amounted to 99.1%.

Regarding `CC(=O)Nc1ccc(C=CC(=O)N(Cc2ccc(N3CCN(C(C)=O)CC3)cc2)[C@@H](Cc2ccccc2)C(=O)N2CCN(Cc3ccc(C#N)cc3)CC2)cc1` [Example 27, (S)-3-(4-Acetylamino-phenyl)-N-[4-(4-acetyl-piperazin-1-yl)-benzyl]-N-{1-benzyl-2-[4-(4-cyano-benzyl)piperazin-1-yl]-2-oxo-ethyl}-acrylamide], the IC50 in experiment [1] (setting [3]) turned out to be 1.8 nM; in experiment [1] (setting [4]), 12.9 nM. Further, in experiment [2], the inhibition in vivo at 100 mg/kg is under 40%.

As to `CCCOc1ccc(C=CC(=O)N(Cc2ccc(N3CCN(C(C)=O)CC3)cc2)[C@@H](Cc2ccccc2)C(=O)N2CCN(Cc3ccc(C#N)cc3)CC2)cc1` [Example 28, (S)-N-[4-(4-Acetyl-piperazin-1-yl)-benzyl]-N-{1-benzyl-2-[4-(4-cyano-benzyl)-piperazin-1-yl]-2-oxo-ethyl}-3-(4-propoxy-phenyl)-acrylamide], the IC50 in experiment [1] (setting [3]) worked out at 1.1 nM; in experiment [1] (setting [4]), 3.6 nM. Further, the inhibition in vivo at 100 mg/kg in experiment [2] came out at 99.3%.

On to `CC(=O)N1CCN(c2ccc(CN(C(=O)C=Cc3ccc(OC(C)C)cc3)[C@@H](Cc3ccccc3)C(=O)N3CCN(Cc4ccc(C#N)cc4)CC3)cc2)CC1` [Example 29, (S)-N-[4-(4-Acetyl-piperazin-1-yl)-benzyl]-N-{1-benzyl-2-[4-(4-cyano-benzyl)-piperazin-1-yl]-2-oxo-ethyl}-3-(4-isopropoxy-phenyl)-acrylamide], for which the 50% inhibitory concentration (IC50) was determined as 1.1 nM in experiment [1] (setting [3]) and 3.7 nM in experiment [1] (setting [4]). For the same molecule, the inhibition in vivo at 100 mg/kg in experiment [2] turned out to be 99.2%.

On to `CCc1ccc(C=CC(=O)N(Cc2ccc(N3CCN(C(C)=O)CC3)cc2)[C@@H](Cc2ccccc2)C(=O)N2CCN(Cc3ccc(C#N)cc3)CC2)cc1` [Example 30, (S)-N-[4-(4-Acetyl-piperazin-1-yl)-benzyl]-N-{1-benzyl-2-[4-(4-cyano-benzyl)-piperazin-1-yl]-2-oxo-ethyl}-3-(4-ethyl-phenyl)-acrylamide], for which the IC50 in experiment [1] (setting [3]) stood at 0.9 nM; in experiment [1] (setting [4]) it was 5 nM. For the same molecule, in experiment [2], the inhibition in vivo at 100 mg/kg was 97.7%.

In the case of `CC(=O)N1CCN(c2ccc(CN(C(=O)C=Cc3ccc(OC(F)F)cc3)[C@@H](Cc3ccccc3)C(=O)N3CCN(Cc4ccc(C#N)cc4)CC3)cc2)CC1` [Example 31, (S)-N-[4-(4-Acetyl-piperazin-1-yl)-benzyl]-N-{1-benzyl-2-[4-(4-cyano-benzyl)-piperazin-1-yl]-2-oxo-ethyl}-3-(4-difluoromethoxy-phenyl)-acrylamide], the IC50 in experiment [1] (setting [3]) was 1.7 nM; in experiment [1] (setting [4]), 3.8 nM. In addition, the inhibition in vivo at 100 mg/kg in experiment [2] is 88.9%.

For `CC(=O)N1CCN(c2ccc(CN(C(=O)C=Cc3ccc(C(C)C)cc3)[C@@H](Cc3ccccc3)C(=O)N3CCN(Cc4ccc(C#N)cc4)CC3)cc2)CC1` [Example 32, (S)-N-[4-(4-Acetyl-piperazin-1-yl)-benzyl]-N-{1-benzyl-2-[4-(4-cyano-benzyl)-piperazin-1-yl]-2-oxo-ethyl}-3-(4-isopropyl-phenyl)-acrylamide], the half-inhibitory concentration (IC50) in experiment [1] (setting [3]) was found to be 0.5 nM; in experiment [1] (setting [4]) it was 4.4 nM. In experiment [2], the inhibition in vivo at 100 mg/kg worked out at 98.5%.

Consider `CC(=O)N1CCN(c2ccc(CN(C(=O)C=Cc3ccc(OC(F)(F)F)cc3)[C@@H](Cc3ccccc3)C(=O)N3CCN(Cc4ccc(C#N)cc4)CC3)cc2)CC1` [Example 33, (S)-N-[4-(4-Acetyl-piperazin-1-yl)-benzyl]-N-{1-benzyl-2-[4-(4-cyano-benzyl)-piperazin-1-yl]-2-oxo-ethyl}-3-(4-trifluoromethoxy-phenyl)-acrylamide], for which the results for the 50% inhibitory concentration (IC50) in experiment [1] (setting [3]) and in experiment [1] (setting [4]) were 3.3 nM and 10.9 nM, respectively. Besides, in experiment [2], the inhibition in vivo at 100 mg/kg came to 97.4%.
